Assay [1] has as its target T1, FSHR (Homo sapiens, UniProt P23945).
T1 construct: expressed in transfected cells; host or cells: CHO cells, clone Cho-FSHR-LUC-1-1-43
T1 sequence (P23945 18-695): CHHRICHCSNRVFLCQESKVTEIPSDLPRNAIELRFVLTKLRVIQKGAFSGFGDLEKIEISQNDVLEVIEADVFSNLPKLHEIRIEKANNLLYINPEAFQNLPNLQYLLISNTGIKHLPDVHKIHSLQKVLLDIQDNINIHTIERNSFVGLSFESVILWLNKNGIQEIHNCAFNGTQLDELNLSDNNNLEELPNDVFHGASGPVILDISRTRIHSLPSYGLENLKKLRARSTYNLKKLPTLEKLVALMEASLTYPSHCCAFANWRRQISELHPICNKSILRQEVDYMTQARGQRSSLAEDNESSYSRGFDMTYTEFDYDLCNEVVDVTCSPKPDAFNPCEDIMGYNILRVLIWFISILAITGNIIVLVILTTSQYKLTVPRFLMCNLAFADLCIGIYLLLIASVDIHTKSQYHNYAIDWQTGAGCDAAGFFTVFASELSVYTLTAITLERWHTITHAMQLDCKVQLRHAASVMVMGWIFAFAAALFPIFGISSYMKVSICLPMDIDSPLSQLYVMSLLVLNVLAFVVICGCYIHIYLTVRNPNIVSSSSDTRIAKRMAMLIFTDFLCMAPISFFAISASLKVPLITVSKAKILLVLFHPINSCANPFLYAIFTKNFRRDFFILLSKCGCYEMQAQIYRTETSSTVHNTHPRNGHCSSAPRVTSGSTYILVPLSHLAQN
The assay is described as follows: EC50 of cyclic AMP production in CHO FSHR cells + EC20 FSH (Assay A). The assay is classed as cell-based. Particulars: CHO-FSHR-LUC cells, in presence of EC20 FSH, cAMP HTRF, 1 h 37° C.

In assay [2] the target is T2, follicle-stimulating hormone (FSH) receptor (Rattus norvegicus, UniProt P20395).
T2 construct: Rat Granulosa EC50 FSH (Assay B); endogenous in cells; host or cells: rat granulosa cells
T2 sequence (P20395 18-692): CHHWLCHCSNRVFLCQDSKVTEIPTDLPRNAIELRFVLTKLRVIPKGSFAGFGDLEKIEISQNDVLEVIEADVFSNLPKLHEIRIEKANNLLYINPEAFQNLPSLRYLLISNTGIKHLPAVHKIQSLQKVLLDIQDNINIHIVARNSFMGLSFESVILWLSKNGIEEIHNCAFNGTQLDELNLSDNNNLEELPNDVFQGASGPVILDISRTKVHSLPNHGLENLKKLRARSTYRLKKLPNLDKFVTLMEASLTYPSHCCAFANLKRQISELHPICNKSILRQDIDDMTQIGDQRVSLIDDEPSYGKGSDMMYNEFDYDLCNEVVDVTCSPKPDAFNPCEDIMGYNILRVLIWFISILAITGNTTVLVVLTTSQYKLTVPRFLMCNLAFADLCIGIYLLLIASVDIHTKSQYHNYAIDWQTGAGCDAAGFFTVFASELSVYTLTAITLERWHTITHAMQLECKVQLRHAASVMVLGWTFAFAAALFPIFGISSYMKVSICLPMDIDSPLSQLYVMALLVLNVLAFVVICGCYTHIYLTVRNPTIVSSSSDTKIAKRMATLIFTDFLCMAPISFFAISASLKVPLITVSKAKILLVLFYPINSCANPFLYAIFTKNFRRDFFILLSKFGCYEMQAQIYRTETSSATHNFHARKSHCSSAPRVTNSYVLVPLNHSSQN
Briefly: Rat Granulosa EC50 FSH (Assay B). Particulars: rat granulosa cells, per Yanofsky et al. 2006. It is filed as cell-based.

Results on 14 compounds are retold here after patent US10138233B2, “Imidazole compounds as modulators of FSHR and uses thereof” (Merck Patent GmbH, priority 2013, dated 2018).

pEC50: −log10 of the molar value. Bounds are passed on as bounds.

What is called pEC50 is the EC50 on a negative log10 scale, so that one unit is a factor of ten. Consider `COc1cc2c(cc1OC(C)C)-n1c(-c3ccc(F)s3)nc(C(=O)N3CCOCC3(C)C)c1CC2` [Compound 59], for which the pEC50 in assay [1] was > 7.00; in assay [2], 6.00 to 7.00.

Consider `COc1cc2c(cc1OC(C)C)-n1c(-c3cc(C)cs3)nc(C(=O)N3CCOCC3(C)C)c1CC2` [Compound 70], for which the pEC50 in assay [1] is > 7.00; in assay [2], 5.30 to 6.00.

In the case of `COc1cc2c(cc1OC(C)C)-n1c(-c3ccc(C)s3)nc(C(=O)N3CCOCC3(C)C)c1CC2` [Compound 71], the pEC50 in assay [1] is > 7.00; in assay [2] it was 6.00 to 7.00.

As for `COc1cc2c(cc1OC(C)C)-n1c(-c3ccc(Cl)s3)nc(C(=O)N3CCOCC3(C)C)c1CC2` [Compound 72], the pEC50 in assay [1] and in assay [2] was > 7.00 each time.

In the case of `COc1cc2c(cc1-c1cnn(C)c1)-n1c(-c3cccs3)nc(C(=O)N3CCOCC3(C)C)c1CC2` [Compound 75, (3,3-Dimethyl-morpholin-4-yl)-[7-methoxy-8-(1-methyl-1H-pyrazol-4-yl)-1-thiophen-2-yl-4,5-dihydro-imidazo[1,5-a]quinolin-3-yl]-methanone], the pEC50 in assay [1] is > 7.00; in assay [2], 6.00 to 7.00.

Turning to `COc1cc2c(cc1-c1c[nH]nc1C)-n1c(-c3ccsc3)nc(C(=O)N(C)C(C)(C)C)c1CC2` [Compound 76, 7-Methoxy-8-(3-methyl-1H-pyrazol-4-yl)-1-thiophen-3-yl-4,5-dihydro-imidazo+1,5-a+quinoline-3-carboxylic acid tert-butyl-methyl-amide], the pEC50 is > 7.00 in assay [1] and 6.00 to 7.00 in assay [2].

In the case of `COc1cc2c(cc1CC(C)C)-n1c(-c3ccc(C)s3)nc(C(=O)N(C)C(C)(C)C)c1CC2` [Compound 96, 8-Isobutyl-7-methoxy-1-(5-methyl-thiophen-2-yl)-4,5-dihydro-imidazo[1,5-a]quinoline-3-carboxylic acid tert-butyl-methyl-amide], the pEC50 was 6.00 to 7.00 in assay [1] and 5.30 to 6.00 in assay [2].

On to `COc1cc2c(cc1CC(C)C)-n1c(-c3ccc(Cl)s3)nc(C(=O)N(C)C(C)(C)C)c1CC2` [Compound 97, 1-(5-Chloro-thiophen-2-yl)-8-isobutyl-7-methoxy-4,5-dihydro-imidazo[1,5-a]quinoline-3-carboxylic acid tert-butyl-methyl-amide], for which the pEC50 in assay [1] was > 7.00; in assay [2], 6.00 to 7.00.

`COc1cc2c(cc1OC(C)C)-n1c(-c3ccc(F)c(F)c3)nc(C(=O)N3CCOCC3(C)C)c1CC2` [Compound 102]: the pEC50 in assay [1] was 6.00 to 7.00; in assay [2], 5.30 to 6.00.

Take `COc1cc2c(cc1OC(C)C)-n1c(-c3cc(Cl)cc(Cl)c3)nc(C(=O)N3CCOCC3(C)C)c1CC2` [Compound 110]: the pEC50 in assay [1] was > 7.00; in assay [2], 6.00 to 7.00.

As to `COc1cc2c(cc1OC(C)C)-n1c(-c3cc(Cl)cs3)nc(C(=O)N3CCOCC3(C)C)c1CC2` [Compound 114], the pEC50 in assay [1] is > 7.00; in assay [2], 6.00 to 7.00.

For the compound `COc1cc2c(cc1OC(C)C)-n1c(-c3cccc(Cl)c3F)nc(C(=O)N3CCOCC3(C)C)c1CC2` [Compound 134], the pEC50 in assay [1] and in assay [2] was 6.00 to 7.00 throughout.

Regarding `COc1cc2c(cc1OC(C)C)-n1c(-c3ccsc3)nc(C(=O)N(C)C(C)(C)C)c1CO2` [Compound 135, 8-Isopropoxy-7-methoxy-1-thiophen-3-yl-4H-5-oxa-2,9b-diaza-cyclopenta[a]naphthalene-3-carboxylic acid tert-butyl-methyl-amide], the values for the pEC50 in assay [1] and in assay [2] were > 7.00 and < 5.30, respectively.

In the case of `COc1cc2c(cc1OC(C)C)-n1c(-c3cccs3)nc(C(=O)N3CCOCC3(C)C)c1CO2` [Compound 139, (3,3-Dimethyl-morpholin-4-yl)-(8-isopropoxy-7-methoxy-1-thiophen-2-yl-4H-5-oxa-2,9b-diaza-cyclopenta[a]naphthalen-3-yl)-methanone], the values for the pEC50 in assay [1] and in assay [2] were > 7.00 and 6.00 to 7.00, respectively.
